Test results: publication PMC6430730, “A short peptide potentially promotes the healing of skin wound” (Bioscience Reports, 2019)
Where a SMILES comes first, the peptide text is derived from it.

Assays:
E. coli (ATCC 25922) = experiment: Antimicrobial activity assay (agar hole diffusion); assay type: cell-based, Escherichia coli; set-up: key: +: Possessing antimicrobial activity; -: Possessing no antimicrobial activity; settings: Amp (1 mg/ml), 7 μl in agar hole, 16–18 h, 37°C
Experimental: (§1) The antimicrobial activity of OA-GL12 was performed based on our previous research. Briefly, fungal strain Candida albicans (ATCC 14053), Gram-positive bacterial strains Staphylococcus epidermidis (ATCC 12228), Staphylococcus haemolyticus (ATCC 29970), and Bacillus subtilis (ATCC 19659), Gram-negative bacterial strains Escherichia coli (ATCC 25922) were obtained from the Kunming Medical University. The microbes were cultivated in LB broth to OD600 = 0.8. A 10-μl aliquot of the bacteria was collected and added to fresh LB (10 ml) broth with 1% Type I agar (Sigma–Aldrich, St. Louis, MO, U.S.A.), and then poured into a 90-mm Petri dish. A micro hole was made after the agar was solidified, and a 7-μl aliquot of OA-GL12 (1 mM) was added to the hole. Petri dish was placed for 16–18 h at 37°C. As the symbol of antimicrobial activity, a clear zone appeared on the surface of the agar just like ampicillin (1 mg/ml), positive control, which represented the antimicrobial ability of OA-GL12.

[1] = system: S. haemolyticus (ATCC 29970); experiment: Antimicrobial activity assay (agar hole diffusion); assay type: cell-based, Staphylococcus haemolyticus; set-up: key: +: Possessing antimicrobial activity; -: Possessing no antimicrobial activity; settings: Amp (1 mg/ml), 7 μl in agar hole, 16–18 h, 37°C
Experimental: as §1

B. subtilis (ATCC 19659) = experiment: Antimicrobial activity assay (agar hole diffusion); assay type: cell-based, Bacillus subtilis; set-up: key: +: Possessing antimicrobial activity; -: Possessing no antimicrobial activity; settings: Amp (1 mg/ml), 7 μl in agar hole, 16–18 h, 37°C
Experimental: as §1

[2] = system: S. epidermidis (ATCC 12228); experiment: Antimicrobial activity assay (agar hole diffusion); assay type: cell-based, Staphylococcus epidermidis; set-up: key: +: Possessing antimicrobial activity; -: Possessing no antimicrobial activity; settings: Amp (1 mg/ml), 7 μl in agar hole, 16–18 h, 37°C
Experimental: as §1

C. albicans (ATCC 14053) = experiment: Antimicrobial activity assay (agar hole diffusion); assay type: cell-based, Candida albicans; set-up: key: +: Possessing antimicrobial activity; -: Possessing no antimicrobial activity; settings: Amp (1 mg/ml), 7 μl in agar hole, 16–18 h, 37°C
Experimental: as §1

HaCaT cells [3] = experiment: Cytotoxicity of Gefitinib on HaCaT cells; assay type: cell-based, human; settings: Gefitinib 1 μM, 24 h; data not shown
HaCaT cells [4] = experiment: Cellular wound healing (scratch) assay, HaCaT; assay type: cell-based, human; settings: MMC 10 µg/ml alone, 24 h; vehicle 53.39 ± 10.11%; mean ± S.D., n=9
Experimental: (§2) Cellular wound healing activity assay was performed as previous research. Briefly, human keratinocytes (HaCaT) (KCB 200442YJ) and human skin fibroblasts (HSF) (KCB 200537) were provided by Conservation Genetics CAS Kunming Cell Bank of Kunming Institute of Zoology, the Chinese Academy of Sciences, and cultured in Dulbecco’s modified Eagle’s medium (DMEM, BI, Israel) with 10% FBS (BI, Israel) and penicillin (100 units/ml)–streptomycin (100 units/ml) in a humidified atmosphere of 5% CO2 (37°C). The possible mycoplasma contamination was excluded by the EZ-PCR mycoplasma contamination detection kit (20-700-20, BI). Cell monolayer formation was formed by culturing the HaCaT and HSF (2.5 × 10^5 cells/well) cells in 24-well plates for 12–24 h with serum starvation and then made to the mechanical scratch wound by a sterile pipette tip (Axygen, U.S.A.). After washing with PBS twice to detach dead cells, cells monolayer was then cultured for next periods (from 0 to 24 h) in a serum-free basal medium (500 μl) with the continued presence of OA-GL12. The same volume of DMEM without OA-GL12 was made as vehicle. […] Cell migration activity was expressed as the percentage of the gap relative to the full area of the scratch using ImageJ software (National Institutes of Health, Bethesda, MD, U.S.A.) to evaluate the repair rate of scarification.

HSF cells = experiment: Cellular wound healing (scratch) assay, HSF; assay type: cell-based, human; settings: MMC 10 µg/ml alone, 24 h; vehicle 38.96 ± 3.34%; mean ± S.D., n=9
Experimental: as §2

mice = experiment: Acute toxicity assay; assay type: in vivo; settings: for Mortality (%): 3 male and 3 female mice, observed 2 weeks
Experimental: Two phases of acute toxicity were performed as previous study. Lethal concentration of OA-GL12 was tested at 5, 10, 25, and 50 μmol/kg by i.p. in mice, while using saline as negative control. The mortalities, toxic effects, and behavioral changes were observed and recorded for 2 weeks.

[5] = system: full-thickness skin wound mice; settings: in vivo
Experimental: Adult male mice (22–25 g) from the same generation were purchased from Hunan SJA Laboratory Animal Co., Ltd (Certificate number 43004700043639, China). […] Mice were made full-thickness skin wound models after 7 days’ acclimation. Briefly, mice were anesthetized by intraperitoneal injection (i.p.) with 1% sodium pentobarbital (0.1 ml/20 g body weight). Dorsal hair were shaved by an electric clipper and sterilized with 75% alcohol. Two full-thickness skin wounds (8 × 8 mm) were surgically made on the back. After the surgery, the mice were placed in comfortable cages until they recovered from anesthesia. Nine mice were randomly divided into three groups. […] The left-sided wounds of the two groups were treated with the same volume of normal saline as vehicle, and the last group treated with 1 mg/ml KangFuXin (KFX, the ethanol extract of the American cockroach, Inner Mongolia Jingxin Pharmaceutical Co. Ltd, China, Z15020805) as positive control. Wounds were treated twice daily with samples and photographed at intervals of 2 days.
The condition of wounds was documented; then ImageJ software was used to estimate the wound areas (percentage of residual wound area to initial areas). […]

human erythrocytes = experiment: Hemolytic activity assay; assay type: cell-based
Experimental: Hemolytic activity assay was performed according to previous research. Briefly, erythrocytes were triply and softly washed with 0.9% normal saline. Then cells were incubated with various concentrations of OA-GL12 for 30 min (37°C), while 0.1% Triton X-100 as maximum hemolysis. The absorbance of supernatant was read at 540 nm after centrifugation with 3000×g for 4 min at room temperature. The numeric data of hemolytic activity (%) was calculated by [(Asample) × 100]/Atriton x-100.

[6] = DPPH free radical scavenging; assay type: physicochemical; settings: 30 min, room temperature, A517
Experimental: 2,2′-azino-bis (3-ethylbenzothiazoline-6-sulphonic acid) (ABTS) and 2,2-diphenyl-1-picrythydrazyl (DPPH)) scavenging activities of OA-GL12 were assessed referring to previous studies. Briefly, a stock solution of ABTS radical was prepared by incubating 2.8 mM potassium persulphate (Sigma–Aldrich, St. Louis, MO, U.S.A.) with 7 mM ABTS in water for no less than 6 h in the dark, and used immediately. The stock solution was diluted 50-fold with double distilled water. Dissolved samples with ultrapure water were added to the diluted stock solution, while the same volume of solvent was used as the blank, and Vitamin C as the positive control. The reaction was in the dark for 30 min. […] Meanwhile, the assay mixture contained 190 μl of 5 × 10^−5 M DPPH radical (Sigma–Aldrich, St. Louis, MO, U.S.A.) dissolved in ethanol and 10 μl of sample solution. The mixture was then incubated in a 96-well microtiter plates at room temperature for 30 min. Subsequently, the absorbance was measured at 517 nm. The free radical scavenging activity (%) was calculated by (Ablank − Asample) × 100/Ablank.

CC1(C)S[C@@H]2[C@H](NC(=O)[C@H](N)c3ccccc3)C(=O)N2[C@H]1C(=O)O [Amp, ampicillin]
Antimicrobial activity (E. coli (ATCC 25922)): +
Antimicrobial activity [1]: +
Antimicrobial activity (B. subtilis (ATCC 19659)): +
Antimicrobial activity [2]: +
Antimicrobial activity (C. albicans (ATCC 14053)): +

COc1cc2ncnc(Nc3ccc(F)c(Cl)c3)c2cc1OCCCN1CCOCC1 [Gefitinib]
cytotoxicity on HaCaT cells (HaCaT cells [3]): no obvious cytotoxicity

CO[C@@]12[C@H](COC(N)=O)C3=C(C(=O)C(C)=C(N)C3=O)N1C[C@@H]1N[C@@H]12 [MMC, mitomycin C]
healing rate of HaCaT cell scratch (HaCaT cells [4]): 26.66 ± 4.64%
scratch healing of HSF cells (HSF cells): 22.78 ± 5.22%

CC[C@H](C)[C@H](NC(=O)CNC(=O)[C@H](CO)NC(=O)[C@H](CC(C)C)NC(=O)[C@H](CC(C)C)NC(=O)CN)C(=O)N[C@@H](CC(N)=O)C(=O)N[C@@H](C)C(=O)N[C@@H](CCC(=O)O)C(=O)N[C@@H](Cc1c[nH]c2ccccc12)C(=O)N1CCC[C@H]1C(=O)N[C@@H](CS)C(=O)O [OA-GL12] (H-GLLSGINAEWPC-OH)
Mortality (%) (mice; 5 μmol/kg i.p.): 0%
Mortality (%) (mice; 10 μmol/kg i.p.): 0%
Mortality (%) (mice; 25 μmol/kg i.p.): 0%
Mortality (%) (mice; 50 μmol/kg i.p.): 0%
death and abnormal behaviors (tremor, retardation, irritability, piloerection, stiffness of tail) (mice; i.p. injection, 2 weeks): no death and other abnormal behaviors
adverse effects on mouse body weight, general health, or behavior [5]: No adverse effects
hemolytic activity on human erythrocytes in vitro (human erythrocytes): negligible hemolytic activity

O=C1O[C@H]([C@@H](O)CO)C(O)=C1O [Vitamin C]
DPPH scavenging activity ([6]; 0.063 μM): nearly inactive
DPPH scavenging ([6]; 1 μM, mean ± S.D., n=3): 7.71 ± 0.56%

Triton X-100
Hemolytic ratio (%) (human erythrocytes; 0.1% Triton X-100 as maximum hemolysis, 30 min, 37°C, A540): 100%
